How the values were obtained:
male ddY mice = assay: Test 4: foot edema after occlusion of the right leg with a rubber band and release in mice; type: in vivo; details: 20 min occlusion, 20 min after cutting the band
Experimental: Five male ddY mice weighing 27-32 g were used for each group. After test compound was administered intravenously, the right leg was occluded by binding 10 times a rubber band (diameter : 42 mm) round it. After 20 minutes later, the rubber band was cut and thickness of foot pad was measured by a dial gage immediately and 20 minutes after cutting the band. The difference of these two values was regarded as edema.

[1] = test system: heart isolated from male guinea-pig; assay: Test 1: isolated guinea-pig heart perfused in the Langendorff mode, global ischemia (35 min) and reperfusion (40 min); details: for % change from control Cardiac depression (pre-ischemia) LVSP x HR: 15 min before ischemia; for % change from control recovery of ATP content (% increase): after 35 min ischemia and 40 min reperfusion
Experimental: The heart was isolated from male guinea-pig weighing 550-650 g and was perfused in the Langendorff mode at 37°C at a constant perfusion pressure of 80 cm H₂O. The perfusion medium was Krebs-Henseleit bicarbonate solution containing 11 mM glucose. The solution was equilibrated with 95% O₂ and 5% CO₂ gas mixture at pH 7.4. A latex balloon was placed in the left ventricular cavity and then left ventricular systolic (LVSP) and diastolic (LVDP) pressure were measured. Heart rate (HR) was triggered by the pulse pressure. Coronary flow was monitored with electromagnetic flow probe placed on the aorta.
The heart was perfused for 45 min. with the perfusion medium and then for 15 min. with the perfusion medium containing the test compound. The heart was then subjected to the global ischemia by stopping the perfusion. After 35 min. of ischemia, the heart was reperfused by the perfusion medium containing no test compound. At the end of 40 min. reperfusion, the cardiac function was monitored. The heart was immidiately frozen for the estimation of ATP content.

Male SD rats [2] = assay: Test 3: myocardial infarction induced by DL-isoproterenol hydrochloride in rats, mortality and myocardial ATP content; type: in vivo; details: dose 1.0 mg/kg intraperitoneally, DL-isoproterenol hydrochloride 120 mg/kg subcutaneously
Experimental: Ten male SD rats weighing 140-170 g were used for each group. Test compound was administered intraperitoneally, and then myocardial infarction was induced by administering DL-isoproterenol hydrochloride (120 mg/kg) subcutaneously. After 24 hours, mortality was examined. Survival rats were anesthetized and their hearts were taken out and frozen immediately for the measurement of myocardial ATP content.

Male SD rats [3] = assay: Test 2: left coronary artery occlusion (5 min) and reperfusion (10 min) in anesthetized rats, incidence of VT, VF and mortality; type: in vivo; details: 10 min before occlusion
Experimental: Male SD rats weighing 270-340 g were anesthetized with sodium pentobarbital. The chest was opened, and then a thread was placed around the left coronary artery near the origin. Both ends of the thread were passed through a small plastic tube. After standing for 5 minutes, test compound was administered intravenously. After 10 minutes, the left coronary artery was occluded for 5 minutes by pulling the thread and pressing the plastic tube to the artery and then reperfusion was achieved by releasing the occlusion for 10 minutes. Electrocardiograms were recorded and analyzed for checking inhibitory rate of incidence of ventricular tachycardia (VT) and ventricular fibrillation (VF) in comparison with control group, and inhibitory rate of mortality as compared with control group was also calculated. 11-18 rats were used for each test group.

[4] = concentration 1 x 10⁻⁵ g/ml in perfusion medium

| SMILES | Inhibition (%) of foot edema (male ddY mice; dose 1.0 mg/kg intravenously) [%] | % change from control coronary flow ([1]; concentration 1 x 10⁻⁵ g/ml) [%] | % change from control Cardiac depression (pre-ischemia) LVSP x HR [1, 4] [%] | % change from control recovery of ATP content (% increase) ([1]; concentration 1 x 10⁻⁵ g/ml) [%] | further results |
| --- | --- | --- | --- | --- | --- |
| Cc1nc(-c2ccccc2)cc(-c2cccc([N+](=O)[O-])c2)c1C(=O)NCCN1CCSCC1.O=C(O)/C=C/C(=O)O [(f), 2-Methyl-4-(3-nitrophenyl)-6-phenyl-3-[2-(4-thiomorpholinyl)ethylcarbamoyl]pyridine fumarate] | 22 | 22.5 | -45.2 | 64.9 |  |
| Cc1nc(-c2ccccc2)cc(-c2cccc([N+](=O)[O-])c2)c1C(=O)NCCN1CCOCC1 [(a), 3-(2-Morpholinoethylcarbamoyl)-2-methyl-4-(3-nitrophenyl)-6-phenylpyridine] | 30 | 32.0 | -1.7 | 89.5 | Inhibition (%) of mortality (Male SD rats [2]; after 24 hours, % change as compared with mortality rate in control group): 75%; Recovery (%) of ATP content (Male SD rats [2]; myocardial ATP of surviving rats after 24 hours): 67%; Inhibition (%) of foot edema (male ddY mice; dose 0.1 mg/kg intravenously): 12%; Inhibition (%) of foot edema (male ddY mice; dose 10 mg/kg intravenously): 42%; Inhibition (%) of incidence as compared with control group Mortality (Male SD rats [3]; dose 1.0 mg/kg intravenously): 13.5%; Inhibition (%) of incidence as compared with control group VF (Male SD rats [3]; dose 1.0 mg/kg intravenously): 28.0%; Inhibition (%) of incidence as compared with control group VT (Male SD rats [3]; dose 1.0 mg/kg intravenously): 0%; Inhibition (%) of incidence as compared with control group Mortality (Male SD rats [3]; dose 3.2 mg/kg intravenously): 52.5%; Inhibition (%) of incidence as compared with control group VF (Male SD rats [3]; dose 3.2 mg/kg intravenously): 60.4%; Inhibition (%) of incidence as compared with control group VT (Male SD rats [3]; dose 3.2 mg/kg intravenously): 0%; Inhibition (%) of incidence as compared with control group Mortality (Male SD rats [3]; dose 10 mg/kg intravenously): 78.9%; Inhibition (%) of incidence as compared with control group VF (Male SD rats [3]; dose 10 mg/kg intravenously): 82.4%; Inhibition (%) of incidence as compared with control group VT (Male SD rats [3]; dose 10 mg/kg intravenously): 5.6%; % change from control coronary flow ([1]; concentration 1 x 10⁻⁶ g/ml): -1.6%; % change from control Cardiac depression (pre-ischemia) LVSP x HR ([1]; concentration 1 x 10⁻⁶ g/ml in perfusion medium): 4.1%; % change from control recovery of ATP content (% increase) ([1]; concentration 1 x 10⁻⁶ g/ml): 96.3% |
| Cc1cc(-c2ccccc2)nc(-c2cccc([N+](=O)[O-])c2)c1C(=O)NCCN1CCOCC1 [(c), 4-Methyl-3-(2-morpholinoethylcarbamoyl)-2-(3-nitrophenyl)-6-phenylpyridine] |  | 31.9 | -38.9 | 71.3 |  |
| Cc1nc(-c2ccccc2)cc(-c2cccc([N+](=O)[O-])c2)c1C(=O)N1CCN(C)CC1 [(d), 2-Methyl-3-(4-methylpiperazin-1-ylcarbonyl)-4-(3-nitrophenyl)-6-phenylpyridine] | 41.5 | 5.0 | -29.7 | 123.6 |  |
| Cc1nc(-c2ccccc2)cc(-c2cccc([N+](=O)[O-])c2)c1C(=O)NCCN(C)C [(e), 3-(2-Dimethylaminoethylcarbamoyl)-2-methyl-4-(3-nitrophenyl)-6-phenylpyridine] |  | -10.2 | -90.6 | 76.3 |  |
| Cc1nc(-c2ccccc2)cc(-c2cccc([N+](=O)[O-])c2)c1NC(=O)NCCN(C)C [(g), 3-[3-(2-Dimethylaminoethyl)ureido]-2-methyl-4-(3-nitrophenyl)-6-phenylpyridine] |  | -42.7 | -85.7 | 78.6 |  |
| CN1CCN(Cc2nnc(-c3ccccc3)cc2-c2cccc([N+](=O)[O-])c2)CC1 [(b), 3-(4-Methylpiperazin-1-ylmethyl)-4-(3-nitrophenyl)-6-phenylpyridazine] |  | -30.6 | -95.8 | 100.4 |  |
